For orientation: GI50 means the concentration that inhibits growth by half.

The text below walks through data of ChEMBL document CHEMBL1201862, “PubChem BioAssay data set” (2004).

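Growth conditions: 96-well plates. Treatment: test compound, 48 hours, 5 concentrations. Analysis: linear interpolation between bracketing concentrations; unreached endpoints set to highest concentration. GI50 is the concentration that inhibits growth by half.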 Activity calls are given as the source filed them. No stated cut-off is given here; in the data, active = GI50 up to about 1.1 µM and inactive = higher. Bounds are passed on as bounds.

Holding throughout (test): DTP human tumour cell line panel, 48 h
Assay [1] has as its system SK-MEL-28.
Assay [2] relates to NCI/ADR-RES.
Assay [3] has as its system HCT-15.
Assay [4] relates to SNB-75.
Assay [5] concerns RXF 393.
For assay [6], the system named is ACHN.
The subject of assay [7] is Malme-3M.
The test system of assay [8] is UACC-257.
The test system of assay [9] is BT-549.
Assay [10] has as its system HCT-116.
Assay [11] has as its system SK-MEL-5.
Assay [12] deals with HCC 2998.
Assay [13] concerns HT-29.
The test system of assay [14] is RPMI-8226.
The test system of assay [15] is SF-539.
Assay [16] deals with U-251.
Assay [17] has as its system IGROV-1.
For assay [18], the system named is T47D.
The test system of assay [19] is NCI-H522.
For assay [20], the system named is MDA-MB-435.

Take `CO/N=C(\C(=O)O/C(=N/C1CCCCC1)NC1CCCCC1)c1csc(NC(c2ccccc2)(c2ccccc2)c2ccccc2)n1`: the GI50 in assay [1] was > 10 µM (inactive); in [2], > 10 µM (inactive); in assay [3] it was more than 10 µM; in assay [4] it was > 10 µM (inactive); in [5], 5.05 µM (inactive); in assay [6] it was > 10 µM (inactive). The GI50 in assay [7], in assay [8], in [9], in assay [10], in assay [11] and in [12] was > 10 µM (inactive) each time. Further, the GI50 in assay [13], in assay [14], in assay [15], in assay [16], in [17] and in assay [18] was > 10 µM (inactive) throughout. Further, the GI50 in assay [19] is > 10 µM (inactive).

`N#Cc1nn(C2OC(COC(=O)c3ccccc3)C(OC(=O)c3ccccc3)C2OC(=O)c2ccccc2)c2nc[nH]c(=O)c12` (stereo not drawn): the GI50 in [1] is 44.1 µM (inactive); in [2], 66.4 µM (inactive); in [3] it was 40.1 µM; in assay [4] it was 76 µM (inactive); in assay [5] it was 36.4 µM (inactive); in [6], 44.3 µM (inactive). Also, the GI50 in assay [7] was 36.1 µM (inactive); in assay [8] it was > 100 µM (inactive); in assay [10], 28.8 µM (inactive); in [20], 46.2 µM (inactive); in assay [11] it was 25.6 µM (inactive); in [12] it was 78.2 µM (inactive). Moreover, the GI50 in assay [13] was 36.2 µM (inactive); in assay [14], 39.4 µM (inactive); in assay [15], 68.4 µM (inactive); in assay [16] it was 62.5 µM (inactive); in assay [17], 42.7 µM (inactive); in assay [18], 46.2 µM (inactive). Moreover, the GI50 in assay [19] is 36.9 µM (inactive).

In the case of `CC(C)CNC(=O)CCc1cccc2c1oc1c(CCN)cccc12`, the GI50 in assay [1] is 11.5 µM (inactive); in assay [2] it was 18.7 µM (inactive); in assay [3], 24.1 µM; in assay [4], 5.62 µM (inactive); in assay [5], 16 µM (inactive); in assay [6], 12.8 µM (inactive). Further, the GI50 in [7] was 16.6 µM (inactive); in [8] it was 11.7 µM (inactive); in assay [10], 9.93 µM (inactive); in assay [20] it was 12.2 µM (inactive); in [11], 14.2 µM (inactive); in assay [12] it was 14.2 µM (inactive). The GI50 in assay [13] is 9.31 µM (inactive); in [15], 16 µM (inactive); in assay [16], 5.85 µM (inactive); in [17], 10.2 µM (inactive); in assay [18] it was 13.7 µM (inactive); in assay [19] it was 13.2 µM (inactive).

In the case of `Cc1cc(S(=O)(=O)Nc2nc(N)nc(N(C)C)n2)c(SCC(=O)O)cc1Cl`, the GI50 was > 10 µM (inactive) in [1]; > 10 µM (inactive) in [2]; more than 10 µM in assay [3]; > 10 µM (inactive) in assay [4]; > 10 µM (inactive) in [5]; > 10 µM (inactive) in assay [6]. The GI50 in assay [7], in assay [8], in assay [9], in assay [10], in assay [11] and in [12] was > 10 µM (inactive) each time. In addition, the GI50 in assay [13], in [14], in [15], in [16], in assay [17] and in assay [18] was > 10 µM (inactive) in each case. The GI50 in assay [19] is > 10 µM (inactive).

On to `COC(=O)/C=C\c1ccc2c(c1)CC1(C2)Cc2ccc(/C=C/C(=O)OC)cc2C1` (stereo not drawn), for which the GI50 was > 100 µM (inactive) in assay [1]; > 31.6 µM (inactive) in assay [2]; more than 31.6 µM in assay [3]; 1.09 µM (active) in assay [4]; > 31.6 µM (inactive) in assay [5]; > 31.6 µM (inactive) in [6]. In addition, the GI50 in [7] was 29.4 µM (inactive); in assay [8], > 31.6 µM (inactive); in [10] it was 24.4 µM (inactive); in assay [20] it was > 31.6 µM (inactive); in assay [11] it was > 31.6 µM (inactive); in [12], > 31.6 µM (inactive). The GI50 was > 31.6 µM (inactive) in [13]; > 31.6 µM (inactive) in [14]; 30 µM (inactive) in [15]; 20.7 µM (inactive) in assay [16]; > 31.6 µM (inactive) in assay [17]; > 31.6 µM (inactive) in assay [18]. In assay [19], the GI50 was 17.4 µM (inactive).

As for `COc1ccccc1Nc1nc(NNC(=O)Cc2ccccc2)nc(NNC(=O)c2ccncc2)n1`, the GI50 in assay [1] was > 10 µM (inactive); in assay [2], > 10 µM (inactive); in [3], more than 10 µM; in assay [4] it was > 10 µM (inactive); in [7], > 10 µM (inactive); in assay [8] it was > 10 µM (inactive). For the same compound, the GI50 in assay [9], in assay [11], in assay [12], in assay [13], in assay [14] and in [15] was > 10 µM (inactive) in each case. Also, the GI50 in assay [16], in assay [17] and in [18] was > 10 µM (inactive) throughout.

For the compound `C=C1C(=O)O[C@H]2C[C@@]3(COC(C)=O)C=COC=C(COC(=O)C(C)C)C3CC12` (stereo partly drawn), the GI50 is > 100 µM (inactive) in [1]; > 100 µM (inactive) in assay [2]; more than 100 µM in assay [3]; 12.2 µM (inactive) in assay [4]; 67.6 µM (inactive) in assay [5]; > 100 µM (inactive) in [6]. In addition, the GI50 in assay [7] is > 100 µM (inactive); in [8], > 100 µM (inactive); in [9] it was > 100 µM (inactive); in assay [10], 37.5 µM (inactive); in [20], 73.5 µM (inactive); in [11], > 100 µM (inactive). The GI50 in [12] was 51.4 µM (inactive); in assay [13] it was > 100 µM (inactive); in assay [14], 21.5 µM (inactive); in assay [15] it was > 100 µM (inactive); in assay [16], 29.4 µM (inactive); in [17] it was > 100 µM (inactive). In addition, the GI50 in [19] was 60 µM (inactive).

On to `COC(=O)[C@@H]1CN(C(=O)CCc2ccccc2)C(=O)N1C(=O)OCc1ccccc1`, for which the GI50 in assay [1] was > 100 µM (inactive); in assay [2], > 100 µM (inactive); in [3] it was more than 100 µM; in assay [4] it was > 100 µM (inactive); in [5] it was > 100 µM (inactive); in assay [6], > 100 µM (inactive). The GI50 in [7], in [8], in assay [10], in assay [20], in assay [11] and in [12] was > 100 µM (inactive) in each case. In addition, the GI50 in assay [13] was > 100 µM (inactive); in assay [14] it was > 100 µM (inactive); in assay [15], > 100 µM (inactive); in [16], > 100 µM (inactive); in assay [17] it was > 100 µM (inactive); in assay [18] it was 38.5 µM (inactive). Besides, the GI50 in assay [19] is > 100 µM (inactive).

On to `COc1ccc(-c2cc(O)c3cc(OC)c(OC)cc3n2)cc1OC`, for which the GI50 in assay [1] is > 100 µM (inactive); in assay [2], > 100 µM (inactive); in [3], more than 100 µM; in assay [4], 37.2 µM (inactive); in assay [5], 67.3 µM (inactive); in assay [6], > 100 µM (inactive). In addition, the GI50 in [7], in [8], in assay [9], in assay [10], in [20] and in assay [11] was > 100 µM (inactive) in each case. Further, the GI50 in assay [12], in assay [13], in [14], in assay [15], in assay [16] and in assay [17] was > 100 µM (inactive) in each case. Further, the GI50 in assay [19] is > 100 µM (inactive).

Consider `Cn1ccc(C(=O)NCCOCCNC(=O)c2ccn(C)c(=O)c2O)c(O)c1=O`, for which the GI50 was > 100 µM (inactive) in [1]; > 100 µM (inactive) in assay [2]; more than 100 µM in assay [3]; > 100 µM (inactive) in assay [6]; > 100 µM (inactive) in assay [7]; > 100 µM (inactive) in assay [8]. Moreover, the GI50 in assay [9], in assay [10], in assay [20], in [11], in assay [12] and in [13] was > 100 µM (inactive) each time. For the same compound, the GI50 in assay [14], in assay [16], in assay [18] and in assay [19] was > 100 µM (inactive) throughout.

As to `COc1ccc(-c2cc(=O)c3c(O)c(OC)c(OC)c(OC)c3o2)cc1OC` [5-DEMETHYLNOBILETIN], the GI50 in assay [1] is > 100 µM (inactive); in assay [2], 14.5 µM (inactive); in assay [3], more than 100 µM; in assay [6] it was > 100 µM (inactive); in [7] it was > 100 µM (inactive); in [8], > 100 µM (inactive). Moreover, the GI50 in assay [9] is 50.9 µM (inactive); in [10], > 100 µM (inactive); in assay [11] it was 27.4 µM (inactive); in [12] it was > 100 µM (inactive); in assay [13], > 100 µM (inactive); in [15], 86.5 µM (inactive). For the same compound, the GI50 in assay [16] is 39.7 µM (inactive); in assay [17], 53.1 µM (inactive); in [18], 4.28 µM (inactive); in [19], 8.97 µM (inactive).
